{"source": "patent US8263083B2", "about": "“Combination therapy with antibody-drug conjugates” (priority 2007, dated 2012)", "key": {"L540cy HL tumors": {"test_system": "L540cy HL tumors", "assay": "Antitumor activity on subcutaneous L540cy HL tumors in SCID mice", "type": "in vivo", "conditions": "for Median TGD (FIG. 6) (days to triple): Vinblastine q4dx3", "protocol": "(§1) SCID mice were implanted with L540cy HL cells in the right flank.\nas §1\n(§2) SCID mice were implanted with L540cy HL cells in the right flank. Groups of mice (5-10/group) were untreated or received cAC10-vcMMAE (1 mg/kg, q4dx3, ip) alone, Gemcitabine (120 mg/kg, q4dx3, ip) alone, or combination treatment with cAC10-vcMMAE and Gemcitabine when tumor sizes averaged approximately 100 mm^3.\nas §2, with “and Gemcitabine,” for “and Gemcitabine”, “approximately 300” for “approximately 100”\nas §1, §1\n(§3) SCID mice were implanted with L540cy HL cells in the right flank. Groups of mice (5-10/group) were untreated or received cAC10-vcMMAE (1 mg/kg, q4dx3, ip) alone, Vinorelbine alone (4 mg/kg q5dx3), or combination treatment cAC10-vcMMAE and vinorelbine when tumor sizes averaged approximately 100 mm^3.\nas §3\nas §3, with “Doxorubicin” for “Vinorelbine”, “(3” for “(4”, “q4dx3),” for “q5dx3),”, “treatment with” for “treatment”, “doxorubicin” for “vinorelbine”\nas §3, with “Doxorubicin” for “Vinorelbine”, “(1.5” for “(4”, “q4dx3),” for “q5dx3),”, “treatment with” for “treatment”, “doxorubicin” for “vinorelbine”\nSCID mice were implanted with L540cy HL cells in the right flank. Groups of mice (7-10/group) were untreated or received cAC10-vcMMAE (1 mg/kg, q4dx3, ip) alone, Vinblastine alone ([…] q4dx3), or combination treatment with cAC10-vcMMAE and vinblastine when tumor sizes averaged approximately 300 mm^3.\nas §2, with “(6-8/group)” for “(5-10/group)”\nas §1"}, "[1]": {"test_system": "relapsed or refractory HL", "conditions": "cited from earlier work"}, "[2]": {"conditions": "FIG. 4A, first experiment, ~100 mm^3, cAC10-vcMMAE 1 mg/kg q4dx3 ip, Vinorelbine 4 mg/kg q5dx3"}, "[3]": {"conditions": "FIG. 4B, second experiment, ~100 mm^3, cAC10-vcMMAE 1 mg/kg q4dx3 ip, Vinorelbine 4 mg/kg q5dx3"}, "[4]": {"conditions": "~100 mm^3, cAC10-vcMMAE 1 mg/kg q4dx3 ip, Gemcitabine 120 mg/kg q4dx3 ip"}, "[5]": {"conditions": "~300 mm^3, cAC10-vcMMAE 1 mg/kg q4dx3 ip, Gemcitabine 120 mg/kg q4dx3 ip"}, "[6]": {"conditions": "FIG. 5A, first experiment, ~100 mm^3, cAC10-vcMMAE 1 mg/kg q4dx3 ip, Doxorubicin 3 mg/kg q4dx3"}, "[7]": {"conditions": "FIG. 5B, second experiment, ~100 mm^3, cAC10-vcMMAE 1 mg/kg q4dx3 ip, Doxorubicin 1.5 mg/kg q4dx3"}, "[8]": {"conditions": "FIG. 6, ~300 mm^3, cAC10-vcMMAE 1 mg/kg q4dx3 ip, Vinblastine 0/1 mg/kg q4dx3"}, "[9]": {"conditions": "FIG. 6, ~300 mm^3, cAC10-vcMMAE 1 mg/kg q4dx3 ip"}, "[10]": {"conditions": "FIG. 7, second study, ~100 mm^3, cAC10-vcMMAE 1 mg/kg q4dx3 ip, Gemcitabine 120 mg/kg q4dx3 ip"}}, "note": "Like-named read-outs stand apart in the source and are kept apart here.", "data": [{"compound": "CCC1=C[C@@H]2CN(C1)Cc1c([nH]c3ccccc13)[C@@](C(=O)OC)(c1cc3c(cc1OC)N(C)[C@H]1[C@@](O)(C(=O)OC)[C@H](OC(C)=O)[C@]4(CC)C=CCN5CC[C@]31[C@@H]54)C2", "note": "[Vinorelbine, reference compound]", "values": [{"measurement": "Median TGD (FIG. 4A) (days to quadruple)", "setting": "L540cy HL tumors; [2]", "value": 28, "unit": "days"}, {"measurement": "durable responses, animals/group", "setting": "L540cy HL tumors; [2]", "value": "0/6"}, {"measurement": "Median TGD (FIG. 4B) (days to quadruple)", "setting": "L540cy HL tumors; [3]", "value": 34.4, "unit": "days"}, {"measurement": "durable responses, animals/group", "setting": "L540cy HL tumors; [3]", "value": "0/9"}]}, {"compound": "cAC10-vcMMAE: antibody-drug conjugate: chimeric AC10 anti-CD30 antibody linked via MC-val-cit-PAB to monomethyl auristatin E", "values": [{"measurement": "effect on tumors compared to control treatment", "setting": "L540cy HL tumors; FIG. 1A, monotherapy, tumors eventually progressed", "value": "induced tumor regressions and significant tumor growth delays"}, {"measurement": "Median TGD (FIG. 1A) (days to quadruple)", "setting": "L540cy HL tumors; FIG. 1A, treatment started at tumor size ~100 mm^3, cAC10-vcMMAE 1 mg/kg q4dx3 ip, ABVD: Adriamycin 1 mg/kg q4dx3 iv, Bleomycin 7.5 u/kg q4dx3 ip, Vinblastine 0.015 mg/kg q4dx3 ip, Dacarbazine 20 mg/kg q3dx4 ip", "value": 63, "unit": "days"}, {"measurement": "durable responses (durable tumor regressions; absence of palpable tumor), animals/group", "setting": "L540cy HL tumors; FIG. 1A, ~100 mm^3, cAC10-vcMMAE 1 mg/kg q4dx3 ip, ABVD full dose", "value": "4/9"}, {"measurement": "Median TGD (FIG. 1B) (days to triple)", "setting": "L540cy HL tumors; FIG. 1B, treatment started at ~300 mm^3, cAC10-vcMMAE 1 mg/kg q4dx3 ip, ABVD: Adriamycin 0.75 mg/kg q4dx3 iv, Bleomycin 6 u/kg q4dx3 ip, Vinblastine 0.01 mg/kg q4dx3 ip, Dacarbazine 15 mg/kg q3dx4 ip", "value": 41, "unit": "days"}, {"measurement": "durable responses, animals/group", "setting": "L540cy HL tumors; FIG. 1B, ~300 mm^3, cAC10-vcMMAE 1 mg/kg q4dx3 ip, ABVD dosages reduced by 25%", "value": "2/10"}, {"measurement": "Median TGD (FIG. 2A) (days to quadruple)", "setting": "L540cy HL tumors; [4]", "value": 34, "unit": "days"}, {"measurement": "Median TGD (FIG. 2B) (days to triplicate)", "setting": "L540cy HL tumors; [5]", "value": 39.5, "unit": "days"}, {"measurement": "durable responses, animals/group", "setting": "L540cy HL tumors; FIG. 3A, first experiment, ~100 mm^3, cAC10-vcMMAE 1 mg/kg q4dx3 ip, GVD", "value": "4/9"}, {"measurement": "Median TGD (FIG. 3A) (days to quadruple)", "setting": "L540cy HL tumors; FIG. 3A, first experiment, ~100 mm^3, cAC10-vcMMAE 1 mg/kg q4dx3 ip, GVD: gemcitabine 60 mg/kg q4dx3 ip, vinorelbine 2 mg/kg q5dx3 ip, doxorubicin 1.5 mg/kg q4dx3 iv", "value": 84.6, "unit": "days"}, {"measurement": "durable responses, animals/group", "setting": "L540cy HL tumors; FIG. 3B, second experiment, ~100 mm^3, cAC10-vcMMAE 1 mg/kg q4dx3 ip, GVD", "value": "0/7"}, {"measurement": "Median TGD (FIG. 3B) (days to quadruple)", "setting": "L540cy HL tumors; FIG. 3B, second experiment, ~100 mm^3, cAC10-vcMMAE 1 mg/kg q4dx3 ip, GVD: gemcitabine 60 mg/kg q4dx3 ip, vinorelbine 2 mg/kg q5dx3 ip, doxorubicin 1.5 mg/kg q4dx3 iv", "value": 54.7, "unit": "days"}, {"measurement": "Median TGD (FIG. 4A) (days to quadruple)", "setting": "L540cy HL tumors; [2]", "value": 64, "unit": "days"}, {"measurement": "durable responses, animals/group", "setting": "L540cy HL tumors; [2]", "value": "1/6"}, {"measurement": "Median TGD (FIG. 4B) (days to quadruple)", "setting": "L540cy HL tumors; [3]", "value": 78.8, "unit": "days"}, {"measurement": "durable responses, animals/group", "setting": "L540cy HL tumors; [3]", "value": "4/10"}, {"measurement": "Median TGD (FIG. 5A) (days to quadruple)", "setting": "L540cy HL tumors; [6]", "value": 64, "unit": "days"}, {"measurement": "durable responses, animals/group", "setting": "L540cy HL tumors; [6]", "value": "1/6"}, {"measurement": "Median TGD (FIG. 5B) (days to quadruple)", "setting": "L540cy HL tumors; [7]", "value": 78.8, "unit": "days"}, {"measurement": "durable responses, animals/group", "setting": "L540cy HL tumors; [7]", "value": "4/10"}, {"measurement": "durable responses, animals/group", "setting": "L540cy HL tumors; [8]", "value": "1/8"}, {"measurement": "Median TGD (FIG. 6) (days to triple)", "setting": "L540cy HL tumors; [9]", "value": 45.9, "unit": "days"}, {"measurement": "Median TGD (FIG. 7) (days to quadruple)", "setting": "L540cy HL tumors; [10]", "value": 78.01, "unit": "days"}, {"measurement": "durable responses, animals/group", "setting": "L540cy HL tumors; [10]", "value": "1/7"}]}, {"compound": "CC[C@]1(O)C[C@@H]2CN(CCc3c([nH]c4ccccc34)[C@@](C(=O)OC)(c3cc4c(cc3OC)N(C)[C@H]3[C@@](O)(C(=O)OC)[C@H](OC(C)=O)[C@]5(CC)C=CCN6CC[C@]43[C@@H]65)C2)C1", "note": "[Vinblastine, reference compound]", "values": [{"measurement": "durable responses, animals/group", "setting": "L540cy HL tumors; [8]", "value": "0/10"}, {"measurement": "Median TGD (FIG. 6) (days to triple)", "setting": "L540cy HL tumors; [9]", "value": 30.93, "unit": "days"}]}, {"compound": "Nc1ccn([C@@H]2O[C@H](CO)[C@@H](O)C2(F)F)c(=O)n1", "note": "[Gemcitabine, 4-amino-1-[(2R,4R,5R)-3,3-difluoro-4-hydroxy-5-(hydroxymethyl)oxolan-2-yl]pyrimidin-2-one, reference compound]", "values": [{"measurement": "response rates", "setting": "[1]; relapsed/refractory setting, majority of patients with prior autologous or allogeneic transplant, Venkatesh et al. 2004", "value": 22, "unit": "%"}, {"measurement": "response rates", "setting": "[1]; transplant naive setting, relapsed or refractory HL patients, Santoro et al. 2000", "value": 39, "unit": "%"}, {"measurement": "Median TGD (FIG. 2A) (days to quadruple)", "setting": "L540cy HL tumors; [4]", "value": 5, "unit": "days"}, {"measurement": "Median TGD (FIG. 2B) (days to triplicate)", "setting": "L540cy HL tumors; [5]", "value": 15.5, "unit": "days"}, {"measurement": "Median TGD (FIG. 7) (days to quadruple)", "setting": "L540cy HL tumors; [10]", "value": 42, "unit": "days"}, {"measurement": "durable responses, animals/group", "setting": "L540cy HL tumors; [10]", "value": "1/6"}, {"measurement": "durable responses, animals/group", "setting": "L540cy HL tumors; FIG. 8, at day 51, experiment not yet complete, ~100 mm^3, cAC10-mcMMAF 1 mg/kg q4dx3 ip, Gemcitabine 120 mg/kg q4dx3 ip", "value": "0/10"}]}, {"compound": "COc1cccc2c1C(=O)c1c(O)c3c(c(O)c1C2=O)C[C@@](O)(C(=O)CO)C[C@@H]3O[C@H]1C[C@H](N)[C@H](O)[C@H](C)O1", "note": "[Doxorubicin, reference compound]", "values": [{"measurement": "Median TGD (FIG. 5A) (days to quadruple)", "setting": "L540cy HL tumors; [6]", "value": 32, "unit": "days"}, {"measurement": "durable responses, animals/group", "setting": "L540cy HL tumors; [6]", "value": "0/3"}, {"measurement": "Median TGD (FIG. 5B) (days to quadruple)", "setting": "L540cy HL tumors; [7]", "value": 27.2, "unit": "days"}, {"measurement": "durable responses, animals/group", "setting": "L540cy HL tumors; [7]", "value": "0/9"}]}]}
